Key:
[1] = In vitro cytotoxicity assay in HepG2 cells using the CCK-8 method; type: cell-based; conditions: human
Description: In vitro cytotoxicity assay for the compounds disclosed herein was performed in HepG2 cells using the CCK-8 method. HepG2 cells (Beina Bio) in the logarithmic growth phase were collected, the concentration of cell suspension was adjusted, and then the cells were plated on a 96-well cell culture plate at 50,000 cells/well. The cells were then incubated overnight in a cell incubator (5%, 37° C.), and after 80-90% cell confluence was achieved, test compound at each concentration gradient or vehicle (DMSO) was added after medium change. The resulting mixture was incubated in the cell incubator (5%, 37° C.) for 48 h. After the treatment, the medium in the plate was discarded. The plate was washed twice with PBS, added with CCK-8 working solution (Beyotime) at 100 μL per well, and then incubated at 37° C. for 1.5 h in the dark. Absorbance at OD450 nm mil was measured for each well on a microplate reader, and CC50 value of each compound was analyzed and calculated.

ROCK1 kinase = molecular target: T1, ROCK1 kinase (Homo sapiens, UniProt Q13464); experiment: In vitro evaluation of ROCK1 kinase selectivity (HTRF KinEASE-STK time-resolved fluorometric assay); type: biochemical; conditions: ROCK1 kinase 0.4 ng/μL, ATP 3.53 μM
T1 construct: purchased Invitrogen
T1 sequence (Q13464 whole entry): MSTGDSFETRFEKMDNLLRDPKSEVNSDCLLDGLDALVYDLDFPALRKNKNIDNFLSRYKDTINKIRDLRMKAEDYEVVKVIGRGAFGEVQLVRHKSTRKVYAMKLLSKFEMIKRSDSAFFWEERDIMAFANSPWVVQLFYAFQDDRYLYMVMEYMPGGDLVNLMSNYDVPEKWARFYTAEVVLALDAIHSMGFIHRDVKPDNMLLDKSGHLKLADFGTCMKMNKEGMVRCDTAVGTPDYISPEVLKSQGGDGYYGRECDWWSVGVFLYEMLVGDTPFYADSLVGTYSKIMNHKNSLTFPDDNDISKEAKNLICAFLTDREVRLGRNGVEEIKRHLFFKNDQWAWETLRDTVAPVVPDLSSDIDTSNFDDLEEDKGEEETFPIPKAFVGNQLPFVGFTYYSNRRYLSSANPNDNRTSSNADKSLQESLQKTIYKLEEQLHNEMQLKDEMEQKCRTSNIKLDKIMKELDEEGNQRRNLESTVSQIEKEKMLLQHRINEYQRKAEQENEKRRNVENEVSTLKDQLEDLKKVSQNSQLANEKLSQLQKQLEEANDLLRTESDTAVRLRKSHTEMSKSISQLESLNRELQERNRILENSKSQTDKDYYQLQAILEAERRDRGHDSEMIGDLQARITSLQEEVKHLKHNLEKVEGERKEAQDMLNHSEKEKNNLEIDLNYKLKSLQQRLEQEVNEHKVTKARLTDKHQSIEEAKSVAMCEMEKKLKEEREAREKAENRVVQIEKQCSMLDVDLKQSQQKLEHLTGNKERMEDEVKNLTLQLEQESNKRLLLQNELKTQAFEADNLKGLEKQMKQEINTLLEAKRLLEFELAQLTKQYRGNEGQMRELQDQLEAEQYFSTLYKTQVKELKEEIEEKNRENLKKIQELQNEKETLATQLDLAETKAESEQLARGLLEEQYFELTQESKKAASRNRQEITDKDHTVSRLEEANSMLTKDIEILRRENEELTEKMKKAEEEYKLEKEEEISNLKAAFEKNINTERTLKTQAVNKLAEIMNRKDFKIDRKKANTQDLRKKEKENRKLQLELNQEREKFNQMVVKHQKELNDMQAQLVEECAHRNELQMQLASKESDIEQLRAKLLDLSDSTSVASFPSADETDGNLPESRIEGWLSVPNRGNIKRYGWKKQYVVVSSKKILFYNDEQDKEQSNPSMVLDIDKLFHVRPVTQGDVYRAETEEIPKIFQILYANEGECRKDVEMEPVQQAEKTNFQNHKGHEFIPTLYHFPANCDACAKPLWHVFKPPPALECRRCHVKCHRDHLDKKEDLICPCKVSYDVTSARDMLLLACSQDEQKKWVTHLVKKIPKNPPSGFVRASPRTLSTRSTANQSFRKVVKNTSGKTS
Description: ROCK1 activity was detected using a 96-well (Cisbio) time-resolved fluorometric assay. The assay for ROCK1 was performed in the following assay buffer: 5 mM MgCl2 (Sigma), 1 mM DTT (Sigma) and 1× kinase buffer. The kinase buffer was used for dilution. 7.5 μL of ROCK1 kinase (Invitrogen) was added to a 96-well microplate to reach a final concentration of 0.4 ng/μL, and then 0.25 μL of test compound (DMSO content: 1%) was added. The mixture was incubated at room temperature for 0.5 h. To start the reaction, the kinase buffer was also used to mix ATP (Aladdin) and the substrate STK-substrate 2-biotin. 7.5 μL of the mixed solution was added to the microplate to reach final concentrations of 3.53 μM and 1 μM. The resulting mixture was incubated at room temperature for 2 h. 5 mL of detection buffer was mixed with STK antibody-Cryptate, and then an appropriate volume of the mixture was mixed with an equal volume of streptavidin-XL665. 10 μL of the resulting mixture was added to stop the reaction. After further incubation for about 1 h, the microplate was read on a Molecular Devices SpectraMax i3x multifunctional microplate reader. The kinase buffer, the STK-substrate 2-biotin, the detection buffer, the STK antibody-Cryptate, and the streptavidin-XL665 were all from HTRF KinEASE-STK kit (Cisbio, 1000 tests, 61GSTXLA).

ROCK2 kinase = molecular target: T2, ROCK2 kinase (Homo sapiens, UniProt O75116); experiment: In vitro evaluation of ROCK2 kinase activity (HTRF KinEASE-STK time-resolved fluorometric assay); type: biochemical; conditions: ROCK2 kinase 0.4 ng/μL, ATP 6.739 μM
T2 construct: purchased Invitrogen PV3759
T2 sequence (O75116 whole entry): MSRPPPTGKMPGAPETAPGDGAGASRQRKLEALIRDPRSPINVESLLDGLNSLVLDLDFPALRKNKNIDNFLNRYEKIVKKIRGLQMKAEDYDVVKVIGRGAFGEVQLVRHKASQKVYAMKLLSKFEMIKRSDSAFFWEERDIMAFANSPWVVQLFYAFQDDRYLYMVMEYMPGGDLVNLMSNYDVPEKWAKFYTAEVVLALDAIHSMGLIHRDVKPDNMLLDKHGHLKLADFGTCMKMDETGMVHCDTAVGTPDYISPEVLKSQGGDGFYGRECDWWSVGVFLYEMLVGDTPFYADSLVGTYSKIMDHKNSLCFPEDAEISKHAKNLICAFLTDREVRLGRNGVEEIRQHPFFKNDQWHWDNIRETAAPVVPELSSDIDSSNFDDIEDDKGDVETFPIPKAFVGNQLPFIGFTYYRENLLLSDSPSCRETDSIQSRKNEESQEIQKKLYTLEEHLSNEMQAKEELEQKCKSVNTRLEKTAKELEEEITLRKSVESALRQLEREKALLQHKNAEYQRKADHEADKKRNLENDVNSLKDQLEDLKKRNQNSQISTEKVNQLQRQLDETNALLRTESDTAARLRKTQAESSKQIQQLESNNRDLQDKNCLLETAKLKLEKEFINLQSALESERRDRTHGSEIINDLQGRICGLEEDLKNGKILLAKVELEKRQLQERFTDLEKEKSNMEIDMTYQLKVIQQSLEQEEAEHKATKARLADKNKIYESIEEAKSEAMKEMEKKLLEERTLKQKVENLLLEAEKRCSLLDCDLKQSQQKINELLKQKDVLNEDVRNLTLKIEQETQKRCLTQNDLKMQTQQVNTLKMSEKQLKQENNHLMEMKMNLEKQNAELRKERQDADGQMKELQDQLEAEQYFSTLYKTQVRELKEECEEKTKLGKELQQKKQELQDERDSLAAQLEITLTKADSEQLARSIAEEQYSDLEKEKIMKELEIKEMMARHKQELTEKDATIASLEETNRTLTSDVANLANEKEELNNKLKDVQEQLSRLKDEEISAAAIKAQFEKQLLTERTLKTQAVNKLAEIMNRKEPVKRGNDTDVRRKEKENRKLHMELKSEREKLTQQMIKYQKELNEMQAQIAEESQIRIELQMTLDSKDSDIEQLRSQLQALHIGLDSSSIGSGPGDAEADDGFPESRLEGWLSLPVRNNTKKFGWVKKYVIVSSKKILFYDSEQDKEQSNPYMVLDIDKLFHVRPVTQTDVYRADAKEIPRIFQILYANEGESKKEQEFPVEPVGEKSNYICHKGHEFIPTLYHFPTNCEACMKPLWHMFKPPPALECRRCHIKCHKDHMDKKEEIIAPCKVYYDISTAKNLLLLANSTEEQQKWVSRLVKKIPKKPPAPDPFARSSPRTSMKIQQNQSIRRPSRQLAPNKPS
Description: ROCK2 activity screening. ROCK2 activity was detected using a 96-well (Cisbio) time-resolved fluorometric assay. The assay for ROCK2 was performed in the following assay buffer: 5 mM MgCl2 (Sigma), 1 mM DTT (Sigma) and 1× kinase buffer. The kinase buffer was used for dilution. 7.5 μL of ROCK2 kinase (Invitrogen, PV3759) was added to a 96-well microplate to reach a final concentration of 0.4 ng/μL, and then 0.25 μL of test compound (DMSO content: 1% (volume fraction)) was added. The mixture was incubated at room temperature for 0.5 h. To start the reaction, the kinase buffer was used to mix ATP (Aladdin) and the substrate STK-substrate 2-biotin. 7.5 μL of the mixed solution was added to the microplate to reach final concentrations of 6.739 μM and 1 μM. The resulting mixture was incubated at room temperature for 2 h. 5 mL of detection buffer was mixed with STK antibody-Cryptate, and then an appropriate volume of the mixture was mixed with an equal volume of streptavidin-XL665. 10 μL of the resulting mixture was added to the microplate to stop the reaction. After further incubation for about 1 h, the microplate was read on a Molecular Devices SpectraMax i3x multifunctional microplate reader. The kinase buffer, the STK-substrate 2-biotin, the detection buffer, the STK antibody-Cryptate, and the streptavidin-XL665 were all from HTRF KinEASE-STK kit (Cisbio, 1000 tests, 61GSTXLA).

[2] = In vitro metabolic stability, guinea pig liver microsome incubation; type: in vitro ADME; conditions: liver microsomes, 1 mg/mL protein, 37° C., read-out: T1/2 in guinea pig liver microsome
Description: (§1) The in vitro metabolic stability of the compounds disclosed herein was determined through incubation of liver microsomes of various species. A proper amount of test compound was added into a liver microsome reaction system (1 mg/mL liver microsome protein, 25 U/mL glucose-6 phosphate dehydrogenase, 1 mM NADP, 6 mM D-glucose 6-phosphate and 5 mM MgCl2), and then the mixture was incubated in a water bath kettle at 37° C. to start reaction. At each time point, 100 μL of the reaction liquid was added into a centrifuge tube containing 400 μL of internal standard working solution (containing a 200 ng/mL solution of dexamethasone, diclofenac, tolbutamide and labetalol in acetonitrile) precooled at 0° C. so as to stop the reaction, and the mixture was then centrifuged at 10,000 g for 10 min at 4° C. The supernatant was collected for LC-MS assay so as to obtain the values of in vitro metabolic half-life of the test compounds in liver microsomes of various species.

[3] = In vitro metabolic stability, human liver microsome incubation; type: in vitro ADME; conditions: liver microsomes, 1 mg/mL protein, 37° C., read-out: T1/2 in human liver microsome
Description: as §1

[4] = In vitro metabolic stability, rat liver microsome incubation; type: in vitro ADME; conditions: liver microsomes, 1 mg/mL protein, 37° C., read-out: T1/2 in rat liver microsome
Description: as §1

Structure (SMILES)	CC50 at 48 h [1]	IC50 (ROCK1 kinase)	IC50 (ROCK2 kinase)	half-life [2]	half-life [3]	half-life [4]
COc1cnc(N2CCc3cc(C(=O)N4CC(F)(F)C4)n(C)c3C2)nc1Nc1ccc(-c2cn[nH]c2)cc1 [Compound L026, (6-(4-((4-(1H-pyrazol-4-yl)phenyl)amino)-5-methoxypyrimidin-2-yl)-1-methyl-4,5,6,7-tetrahydro-1H-pyrrolo[2,3-c]pyridin-2-yl)(3,3-difluoroazetidin-1-yl)methanone]	> 100 µM	> 4.5 µM	≤ 0.05 µM	0.473 h	3.95 h	1.02 h
Cn1c(C(=O)N2CC(F)(F)C2)cc2c1CN(c1nc3c(c(Nc4ccc(-c5cn[nH]c5)cc4)n1)COCC3)CC2 [Compound L031]	33.4 µM	> 4.5 µM	≤ 0.05 µM	–	–	–
Cn1c(C(=O)OCC(F)(F)F)cc2c1CN(c1nccc(Nc3ccc(-c4cn[nH]c4)cc3)n1)CC2 [Compound L032, 2,2,2-trifluoroethyl 6-(4-((4-(1H-pyrazol-4-yl)phenyl)amino)pyrimidin-2-yl)-1-methyl-4,5,6,7-tetrahydro-1H-pyrrolo[2,3-c]pyridine-2-carboxylate]	28.4 µM	> 4.5 µM	0.05 to 0.5 µM	0.563 h	1.35 h	0.708 h
Cn1c(C(=O)N2CC(C(F)(F)F)C2)cc2c1CN(c1nccc(Nc3ccc(-c4cn[nH]c4)cc3)n1)CC2 [Compound L033]	> 100 µM	> 4.5 µM	≤ 0.05 µM	0.837 h	1.55 h	1.14 h
Cn1c(C(=O)N2CC(F)(F)C2)cc2c1CN(c1nncc(Nc3ccc(-c4cn[nH]c4)cc3)n1)CC2 [Compound L037, (6-(5-((4-(1H-pyrazol-4-yl)phenyl)amino)-1,2,4-triazin-3-yl)-1-methyl-4,5,6,7-tetrahydro-1H-pyrrolo(2,3-c)pyridin-2-yl)(3,3-difluoroazetidin-1-yl)methanone]	> 100 µM	> 4.5 µM	≤ 0.05 µM	1 h	2.61 h	0.554 h
Cn1c(C(=O)N2CC(F)(F)C2)cc2c1CN(c1nc(C#N)cc(Nc3ccc(-c4cn[nH]c4)cc3)n1)CC2 [Compound L042]	27.9 µM	> 4.5 µM	0.05 to 0.5 µM	5.81 h	7.3 h	5.75 h
COc1nnc(N2CCc3cc(C(=O)N4CC(F)(F)C4)n(C)c3C2)nc1Nc1ccc(-c2cn[nH]c2)cc1 [Compound L043, (6-(5-((4-(1H-pyrazol-4-yl)phenyl)amino)-6-methoxy-1,2,4-triazin-3-yl)-1-methyl-4,5,6,7-tetrahydro-1H-pyrrolo[2,3-c]pyridin-2-yl)(3,3-difluoroazetidin-1-yl)methanone]	> 100 µM	–	0.05 to 0.5 µM	1.42 h	1.87 h	1.34 h
O=C(c1cc2c(n1C(F)F)CN(c1ncnc(Nc3ccc(-c4cn[nH]c4)cc3)n1)CC2)N1CC(F)(F)C1 [Compound L045, (6-(4-((4-(1H-pyrazol-4-yl)phenyl)amino)-1,3,5-triazin-2-yl)-1-(difluoromethyl)-4,5,6,7-tetrahydro-1H-pyrrolo[2,3-c]pyridin-2-yl)(3,3-difluoroazetidin-1-yl)methanone]	> 100 µM	> 4.5 µM	> 4.5 µM	–	–	–
O=C(c1cc2c(n1C(F)F)CN(c1ncc(F)c(Nc3ccc(-c4cn[nH]c4)cc3)n1)CC2)N1CC(F)(F)C1 [Compound L047, (6-(4-((4-(1H-pyrazol-4-yl)phenyl)amino)-5-fluoropyrimidin-2-yl)-1-(difluoromethyl)-4,5,6,7-tetrahydro-1H-pyrrolo[2,3-c]pyridin-2-yl)(3,3-difluoroazetidin-1-yl)methanone]	> 100 µM	> 4.5 µM	> 4.5 µM	–	–	–
CCc1nc(Nc2ccc(-c3cn[nH]c3)cc2)nc(N2CCc3cc(C(=O)N4CC(F)(F)C4)n(C)c3C2)n1 [Compound L048, (6-(4-((4-(1H-pyrazol-4-yl)phenyl)amino)-6-ethyl-1,3,5-triazin-2-yl)-1-methyl-4,5,6,7-tetrahydro-1H-pyrrolo[2,3-c]pyridin-2-yl)(3,3-difluoroazetidin-1-yl)methanone]	100 µM	> 4.5 µM	0.5 to 4.5 µM	–	–	–
Cc1nc(Nc2ccc(-c3cn[nH]c3)cc2)nc(N2CCc3cc(C(=O)N4CC(C#N)C4)n(C)c3C2)n1 [Compound L050, 1-(6-(4-((4-(1H-pyrazol-4-yl)phenyl)amino)-6-methyl-1,3,5-triazin-2-yl)-1-methyl-4,5,6,7-tetrahydro-1H-pyrrolo[2,3-c]pyridin-2-carbonyl)azetidine-3-carbonitrile]	> 100 µM	> 4.5 µM	0.05 to 0.5 µM	1.07 h	4.32 h	1.03 h
Cn1c(C(=O)N2CC(F)(F)C2)cc2c1CN(c1nc(Nc3ccc(-c4cn[nH]c4)cc3)nc(C3COC3)n1)CC2 [Compound L052, (6-(4-((4-(1H-pyrazol-4-yl)phenyl)amino)-6-(oxetan-3-yl)-1,3,5-triazin-2-yl)-1-methyl-4,5,6,7-tetrahydro-1H-pyrrolo[2,3-c]pyridin-2-yl)(3,3-difluoroazetidin-1-yl)methanone]	–	> 4.5 µM	0.05 to 0.5 µM	–	–	–
Cn1c(C(=O)N2CC(F)(F)C2)cc2c1CN(c1nc3c(c(Nc4ccc(-c5cn[nH]c5)cc4)n1)CCC3)CC2 [Compound L053, (6-(4-((4-(1H-pyrazol-4-yl)phenyl)amino)-6,7-dihydro-5H-cyclopenta[d]pyrimidin-2-yl)-1-methyl-4,5,6,7-tetrahydro-1H-pyrrolo[2,3-c]pyridin-2-yl)(3,3-difluoroazetidin-1-yl)methanone]	–	> 4.5 µM	0.05 to 0.5 µM	–	–	–
O=C(c1ccc2c(cnn2-c2nccc(Nc3ccc(-c4cn[nH]c4)cc3)n2)c1)N1CC(F)(F)C1 [Compound L055]	–	> 4.5 µM	0.5 to 4.5 µM	–	–	–
CC(C)NC(=O)COc1cccc(-c2nc(Nc3ccc4[nH]ncc4c3)c3ccccc3n2)c1 [KD-025, reference compound]	–	–	–	1.61 h	1.52 h	0.287 h

— patent US20230257376A1, “ROCK INHIBITOR, AND PREPARATION METHOD THEREFOR AND USE THEREOF” (WUHAN LL SCIENCE AND TECHNOLOGY DEVELOPMENT CO., LTD., priority 2020, published 2023)
